What was measured:
[1] = Size and polydispersity index of nanoparticles comprising compounds of the disclosure; format: physicochemical; settings: compound:DSPC:cholesterol:PEG 2 50:10:38:2 mol %
Summary of the method: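 LNPs contained test lipid:DSPC:cholesterol:PEG 2 at 50:10:38:2 mol %. Size and polydispersity index were measured by dynamic light scattering.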

[2] = Encapsulation efficiency (% EE), ribogreen; format: physicochemical; settings: nanoparticles, compound:DSPC:cholesterol:PEG 2 50:10:38:2 mol %
Summary of the method: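 Encapsulated RNA fraction determined by fluorescence of free RNA before and after LNP disruption with detergent or solvent. LNPs contained ionizable lipid:DSPC:cholesterol:PEG lipid at 50:10:38:2 mol %.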

[3] = Encapsulation efficiency (% EE), ribostar; format: physicochemical; settings: nanoparticles, compound:DSPC:cholesterol:PEG 2 50:10:38:2 mol %
Excerpt: The efficiency of encapsulation of a therapeutic and/or prophylactic describes the amount of therapeutic and/or prophylactic that is encapsulated or otherwise associated with a lipid nanoparticle (e.g., an empty LNP or a loaded LNP) after preparation, relative to the initial amount provided. The encapsulation efficiency is desirably high (e.g., close to 100%). The encapsulation efficiency may be measured, for example, by comparing the amount of therapeutic and/or prophylactic in a solution containing the lipid nanoparticle (e.g., an empty LNP or a loaded LNP) before and after breaking up the lipid nanoparticle (e.g., an empty LNP or a loaded LNP) with one or more organic solvents or detergents. Fluorescence may be used to measure the amount of free therapeutic and/or prophylactic (e.g., RNA) in a solution. For the lipid nanoparticles (e.g., empty LNPs or loaded LNPs) described herein, the encapsulation efficiency of a therapeutic and/or prophylactic may be at least 50%, for example 50%, 55%, 60%, 65%, 70%, 75%, 80%, 85%, 90%, 91%, 92%, 93%, 94%, 95%, 96%, 97%, 98%, 99%, or 100%. In some embodiments, the encapsulation efficiency may be at least 80%. In certain embodiments, the encapsulation efficiency may be at least 90%. In some embodiments, the encapsulation efficiency of the therapeutic and/or prophylactic agent is between 80% and 100%.
Nanoparticle compositions including a therapeutic and/or prophylactic can be optimized according to the selection of a compound according to Formula (I), (I-1), (A), (A-1), (A-1a), or (A-1b), the selection of additional lipids, the amount of each lipid in the lipid component, and the wt:wt ratio of the lipid component to the therapeutic and/or prophylactic. Nanoparticle compositions including DSPC as a phospholipid, cholesterol as a structural lipid, PEG 2 as a PEG lipid, and a compound according to Formula (I), (I-1), (A), (A-1), (A-1a), or (A-1b) were prepared. The ratios of the lipids were 50:10:38:2 mol % for the lipid according to Formula (I), (I-1), (A), (A-1), (A-1a), or (A-1b):DSPC:cholesterol:PEG 2. Tables 2a, 2b, and 3-5 summarize the characteristics of the formulations.
Table 4 summarizes the surface hydrophobicity of nanoparticles comprising compounds of the disclosure as determined by Generalized Polarization by Laurdan (GPL). Laurdan, a fluorescent aminonaphthalene ketone lipid, was post-inserted into the nanoparticle surface and the fluorescence spectrum of Laurdan was collected to determine the normalized Generalized Polarization (N-GP). Higher N-GP indicates a less polar surface.

[4] = Apparent LNP pKa by 2-(p-toluidino)-6-napthalene sulfonic acid (TNS) assay; format: physicochemical; settings: pH at half of maximum fluorescence
[5] = Surface hydrophobicity by Generalized Polarization by Laurdan (GPL); format: physicochemical; settings: normalized Generalized Polarization by Laurdan; higher N-GP = less polar surface
Summary of the method: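 LNPs contained ionizable lipid:DSPC:cholesterol:PEG lipid at 50:10:38:2 mol %. Laurdan was post-inserted into the particle surface, and its fluorescence spectrum gave normalized generalized polarization (N-GP); higher N-GP means a less polar surface.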

[6] = Heparin-sepharose binding of nanoparticles
hEPO mRNA = test: hEPO expression in CD1-mice after intravenous administration of nanoparticles; format: in vivo; settings: 6 h after intravenous administration, mRNA dose 0.5 mg/kg, N:P 3.4, compound:DSPC:cholesterol:PEG 2 50:10:38:2
Procedure: The expression of hEPO mRNA in CD1-mice was measured 6 h after intravenous administration of nanoparticles comprising a compound of the disclosure, DSPC, cholesterol, and PEG 2 in a ratio of 50:10:38:2. […] Each composition was dosed to 8 animals at an mRNA dose of 0.5 mg/kg.

serum protein ApoE = test: ApoE binding affinity of nanoparticles (bead binding, flow cytometry)
Procedure: The ApoE binding affinity, i.e., the affinity of binding between nanoparticles comprising compounds of the disclosure and the serum protein ApoE, was determined by binding the nanoparticles to beads, then incubating them with known quantities of […]. The quantity of protein bound to the nanoparticle was then determined by flow cytometry.

mRNA = mRNA integrity in nanoparticles by RP-IP HPLC (UV 260 nm); format: physicochemical
Procedure: Integrity of mRNA comprised in nanoparticles of the disclosure, i.e., the percentages of intact mRNA, mRNA adducts, and mRNA hydrolysis products, […] (Reverse-Phase Ion-Pairing HPLC) using UV detection at 260 nm. Total purity and impurities are calculated as percent peak area.

[7] = mRNA integrity after 2 weeks at 25° C., percent peak area
[8] = mRNA integrity at t = 0, percent peak area

CCCCCCCCC(CC)OC(=O)CCCCCCCN(CCCCCCCC(=O)OC(CCCCCCCC)CCCCCCCC)CCCNC1=C(C(N)=O)C(=O)OC1 (stereo not drawn) [Compound 72, Heptadecan-9-yl 8-((3-((4-carbamoyl-5-oxo-2,5-dihydrofuran-3-yl)amino)propyl)(8-oxo-8-(undecan-3-yloxy)octyl)amino)octanoate]
PDI [1]: 0.090 | Size (nm) [1]: 76.7 nm | % EE (ribogreen) [2]: 91.2% | % EE (ribostar) [3]: 78.6% | LogIC50 (pKa) [4]: 6.39 | Average N-GP [5]: 0.988 | Relative % Area Bound by LNP [6]: 0% | Avg. [hEPO] mIU/mL (hEPO mRNA): 7.36E+05 mIU/mL | Median Fluorescence Intensity, PE (serum protein ApoE): 78901 | Adduct (mRNA; [7]): 24.9% | Hydrolysis Product (mRNA; [7]): 23.5% | Intact (mRNA; [7]): 51.6% | Adduct (mRNA; [8]): 5.6% | Hydrolysis Product (mRNA; [8]): 16.8% | Intact (mRNA; [8]): 77.7%

— patent US20230000773A1, “NOVEL HEADGROUP LIPID COMPOUNDS AND COMPOSITIONS FOR INTRACELLULAR DELIVERY OF THERAPEUTIC AGENTS” (ModernaTX, Inc., priority 2019, published 2023)
